In data set [1] the test system is human thrombi. The data set is described as follows: Ex vivo blood flow model: binding to human thrombi, incl. competition with cold compound. The conditions noted are these: ± SEM. An excerpt: The binding of compounds to thrombi was further investigated in an ex vivo blood flow model similar to that described in “Wakhloo, A. K. et al. Thrombus and stroke 2008, in vitro models 57-66” but modified with regard to thrombus development. Briefly, an open handmade tube-set consisting of tygon-tubes (Tygon R-1000, part N^O AAU00007: I.D. 3.2 mm, O.D. 6.4 mm, Saint Gobain Performance Plastics North America), intermediate tubes (Intrafix® Infusion set, B. Braun, Melsungen, Germany) an open reservoir (10 mL Combitip, Eppendorf) and a chamber made of a piece of polyethylene-Tube, ([…] Polyethylene Tubing, Clay Adams, PE160, length: 6.5 cm) containing a loop of a roughened thread (fishing line: Okuma UltraMax whitefish, diameter: 0.14 mm, length: 5 cm; sandpaper: CAMI Grit designation: 600, CP918a, VSM) was used for thrombus formation. The connection between the intermediate tube and the thrombus chamber was made by trimmed tips (epTIPS, 200 μL, Eppendorff, Hamburg/Germany). The Reservoir and the thrombus chamber were fixed by clamps and stands. A peristaltic-pump (Minipuls 3, Gilson, Middelton/USA) was used to pump the blood around thereby adjusting the flow in the middle of the thrombus chamber to 70-90 cm per second, which was monitored by ultrasound Doppler measurement (Vevo 770 High-Resolution In Vivo Micro-Imaging System, VisualSonics, TorontoOntario, Canada; Scanhead: RMV 704, 40 MHz). The volume of the entire tube-set was 7.5 or 15 mL.
For each experiment fresh blood was taken from a volunteer using 10 mL citrate-tubes (Sarstedt S-Monovette 02.1067.001, 10 mL, Citrate 3.13%) and immediately laid into the turning-device of an incubator at a temperature of 37° C. (Heraeus miniTherm CTT with integrated rotation- and turning device, turning speed: 19 rotations per minute, Heraeus Instruments GmbH, Hanau/Germany). As needed, two tubes were taken out of the turning-device and 15 mL were transferred to a 20 mL Syringe (Omnifix®, B. Braun, Melsungen/Germany) and gently mixed with 0.75 mL CaCl2-Solution before the peristaltic pump was started and the whole content of the syringe was transferred into the reservoir of the tube-set via a cell strainer (BD Falcon™ cell strain, 40 μm, BD, Franklin Lakes, N.J. USA). After 7 minutes 1 MBq or 0.5 MBq (15 mL or 7.5 mL) of the compound was added to the reservoir by means of a pipette, thereby mixing the content gently with the tip of the pipette. The blood was left circulating for another 3 minutes. Then, the pump was stopped, aliquots were taken from the blood and the thrombus together with the roughened thread was removed from the thrombus-chamber before both was weighted and measured in a gamma counter (Automatic Gamma Counter Wizard^2 3, Perkin Elmer). Then the thrombus together with the thread was incubated in Plasmin-solution (Plasmin from Human Plasma, Sigma Aldrich, stock-solution: 500 μg in 500 μL 150 μM Tris-buffer (pH 7.8), 20 μL stock-solution to 230 μL saline solution 0.9%) for 48 hours to separate the platelets from the thread and to determine the netto weight of the thrombus. Finally the activity of the compound in blood and thrombus as well as the ratio between both was determined (cpm/weight [mg]).
To verify the specificity of the compound, a competition experiment was conducted in which the cold compound was added to the reservoir together with the hot compound. The final plasma concentration of the cold compound was 2.8 μM.

Data set [2] can be described thus: Pharmacokinetics / biodistribution in mice. In kind it is in vivo. To be noted: nude mice. The method, then:
The biodistribution of the compound described in example 41 was determined in nude mice. Briefly, the mice received 185 KBq of the compound each. At different time points ([…], 3 mice per group) the animals were sacrificed and the organs of interest or aliquots thereof were removed, weighted and finally measured in a gamma counter (Automatic Gamma Counter Wizard^2 3, Perkin Elmer).

With `O=C(O)C[C@H](NC(=O)[C@@H]1CCCN(C(=O)CCC2CCNCC2)C1)c1cncc(-c2ccc(OCC[18F])cc2)c1` [Example 41, (3S)-3-{5-[4-(2-[^18F]Fluoroethoxy)phenyl]pyridin-3-yl}-3-[({(3R)-1-[3-(piperidin-4-yl)propanoyl]piperidin-3-yl}carbonyl)amino]propanoic acid], the “in vitro clot-to-blood ratio” value in data set [1] (3 minutes post-injection of 18F-labeled compound) is recorded as 83 ± 14 (n = 6). The “Accumulation Thrombus” value in data set [1] (3 minutes post-injection of 18F-labeled compound, without cold compound) is recorded as 44 ± 7 (n = 6) 10^3 cpm/mg. Further, in data set [1] (cold compound added with hot compound, final plasma concentration 2.8 μM, 3 minutes), the Thrombus competition is 5 ± 1 (n = 5) 10^3 cpm/mg. Further, in data set [2], the “enhancement in the vessel-wall” value is “no enhancement in the vessel-wall”; the excretion result was “quickly excreted over the kidney and liver”. Moreover, in data set [2] (185 KBq, 1-120 minutes p.i.), the “elimination from the blood” value was “rapidly eliminated from the blood”. For the same molecule, the “background in the rest of the body” value in data set [2] (after 15 minutes p.i.) was “almost no background in the whole rest of the body”.

The values above are taken from US9345793B2, “Compounds for binding to the platelet specific glycoprotein IIB/IIIA and their use for imaging of thrombi” (PIRAMAL IMAGING SA, priority 2011, dated 2016).
